Source: patent US6737055B2, “Isolated cathepsin L type cysteine proteases and reducing intercorneocyte cohesion/promoting desquamation therewith” (Societe l'Oreal S.A., priority 1997, dated 2004)
Where a SMILES comes first, the peptide text is derived from it. [ ]: non-standard residue; d: D form. The star is where a group is joined. Sta = CC(C)C[C@H](N)[C@@H](O)CC(=O)O; Isovaleryl = CC(C)CC(=O)*

Experiments:
L cathepsins = L cathepsins (Homo sapiens, UniProt P07711); conditions: cited from earlier work
L cathepsins, sequence (P07711 114-333): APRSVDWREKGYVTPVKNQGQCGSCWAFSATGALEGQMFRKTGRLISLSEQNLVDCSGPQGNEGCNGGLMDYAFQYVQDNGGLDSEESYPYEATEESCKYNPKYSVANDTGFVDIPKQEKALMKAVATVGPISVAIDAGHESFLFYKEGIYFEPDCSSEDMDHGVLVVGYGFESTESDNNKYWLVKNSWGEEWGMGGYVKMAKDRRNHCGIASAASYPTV

cathepsins D = conditions: in the presence of urea; cited from earlier work
cathepsins L = conditions: in the presence of urea; cited from earlier work
[1] = system: cysteine-dependent protease of the G4 peak; test: Protease activity of G4 peak fractions (Enzcheck kit, BODIPYfl-caséine fluorometry) with or without known protease inhibitors, 5 mM cysteine; assay type: biochemical, human
Experimental: The protease activities contained in the fractions obtained by transporting over the Superdex G75 HR10/30® exclusion column were assayed by fluorometry using the Enzcheck® kit (Molecular Probes).
This kit is a rapid and simple method of measuring the protease activities, with no precipitation or separation phase and is therefore suitable for rapid screening of the protease activities of the different fractions. This protocol employs, as substrate therefor, BODIPYfl-caséine® which becomes fluorescent after enzymatic digestion. The fluorescence thus liberated is directly proportional to the protease activity contained in the sample. The fluorescence was measured on the LS50B spectrofluorometer, Perkin Elmer, with an excitation wavelength of 485 nm (slit of 2.5 nm), an emission wavelength of 535 nm (slit of 8 nm) and an integration time of 1 second per well.
The assays were carried out in the presence or absence of cysteine at a final concentration of 5 mM so as to detect possible cysteine protease activities.
In order to better characterize the cysteine-dependent protease isolated above, tests of inhibition by known protease inhibitors were carried out. The measurements were carried out in an identical manner to the preceding measurements in the presence of cysteine at a final concentration of 5 mM and in the presence or absence (control) of the inhibitor considered.

Z(phe-arg 2R110)
sensitivity to the action of the L cathepsins relative to the B cathepsins (L cathepsins): 850 times

NC(N)=O [urea, Urea]
factor by which cathepsin D activity is multiplied (cathepsins D): 6 | factor by which cathepsin L activity is multiplied (cathepsins L): 2.5

CC(C)CC(=O)N[C@H](C(=O)N[C@H](C(=O)N[C@@H](CC(C)C)[C@@H](O)CC(=O)N[C@@H](C)C(=O)N[C@@H](CC(C)C)[C@@H](O)CC(=O)O)C(C)C)C(C)C [Pepstatin] (Isovaleryl-VV[Sta]A[Sta]-OH)
action on G4 protease activity ([1]; pepstatin at 1 μM, 5 mM cysteine): without action

CC(C)C[C@H](NC(=O)[C@H]1O[C@@H]1C(=O)O)C(=O)NCCCCN=C(N)N [E 64]
inhibition of the activity of the cysteine-dependent protease of the G4 peak ([1]; E 64 at 1.4 μM, 5 mM cysteine, acetate buffer pH 5.0): about 71%

CC(=O)N[C@@H](CC(C)C)C(=O)N[C@@H](CC(C)C)C(=O)N[C@H](C=O)CCCNC(=N)N [Leupeptin]
reduction of the protease activity of G4 ([1]; leupeptin at 1 μM, in the presence of cysteine): about 41%

CC(C)C[C@H](NC(=O)[C@@H](NC(=O)N[C@@H](Cc1ccccc1)C(=O)O)[C@@H]1CCN=C(N)N1)C(=O)N[C@H](C=O)Cc1ccccc1 [chymostatin, Chymostatin]
inhibition of the cysteine-dependent protease of peak G4 ([1]; chymostatin at 2.5 μM, 5 mM cysteine): more than 50%

CCCNC(=O)[C@H]1O[C@@H]1C(=O)N[C@H](C(=O)N1CCC[C@H]1C(=O)O)[C@@H](C)CC [Inhibitor CA 074, CA 074]
effect on the activity profile of the cysteine-dependent protease of peak G4 ([1]; 1 μM, 5 mM cysteine): practically, did not affect the activity profile
